This note sets out measurements from ChEMBL document CHEMBL1201862, “PubChem BioAssay data set” (2004).

The source made the active and inactive calls.

The nature of assay [1]: viability loss in Vero cells – cytotoxicity control for Vif-APOBEC3G degradation inhibitor project, dose response (AID 1117358). Type of assay: functional. The settings on record: Vero.
The target in assay [2] is Serine/threonine-protein phosphatase (Homo sapiens, UniProt Q9BPW0). Description: Counterscreen for inhibitors of PP1: fluorescence-based biochemical high throughput dose response assay to identify inhibitors of Protein Phosphatase 5 (PP5). [Related pubchem assays: 2034 (Summary (PP5 inhibitors)), 1987 (PP5 inhibitors in singlate), 2235 (PP1 inhibitors in singlate)].
Sequence of Serine/threonine-protein phosphatase (Q9BPW0 whole entry): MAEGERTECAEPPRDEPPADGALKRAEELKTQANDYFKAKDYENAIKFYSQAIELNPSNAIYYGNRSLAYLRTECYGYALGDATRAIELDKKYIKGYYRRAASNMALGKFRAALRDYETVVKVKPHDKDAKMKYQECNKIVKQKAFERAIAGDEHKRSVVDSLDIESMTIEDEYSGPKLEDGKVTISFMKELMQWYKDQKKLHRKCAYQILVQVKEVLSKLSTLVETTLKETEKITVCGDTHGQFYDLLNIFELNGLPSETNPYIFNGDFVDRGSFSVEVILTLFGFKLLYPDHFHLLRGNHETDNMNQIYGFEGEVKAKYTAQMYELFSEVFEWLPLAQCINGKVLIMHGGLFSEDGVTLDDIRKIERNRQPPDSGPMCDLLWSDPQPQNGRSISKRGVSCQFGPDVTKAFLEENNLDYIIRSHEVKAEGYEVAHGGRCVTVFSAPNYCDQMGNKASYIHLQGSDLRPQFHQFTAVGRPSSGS
Another assay concerns the target Cytochrome P450 2C9 (Homo sapiens, UniProt P11712).
The nature of assay [3]: microbe, parasite or virus in culture. Type of assay: functional. As to conditions: Mycobacterium tuberculosis.
The nature of assay [4]: IC50 of Artemis nuclease activity blockers – biochemical, fluorescence intensity, dose response (AID 720701).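 Further: Artemis endonuclease enzyme.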 Type of assay: functional.
In assay [5] the target is Serine/threonine-protein phosphatase PP1-alpha catalytic subunit (Homo sapiens, UniProt P62136). Description: inhibition of protein phosphatase 1 activity – biochemical, fluorescence, dose response (AID 2403).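 Further: phosphatase turnover of OMFP into fluorescent 3-O-methylfluorescein.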
Sequence of Serine/threonine-protein phosphatase PP1-alpha catalytic subunit (P62136 whole entry): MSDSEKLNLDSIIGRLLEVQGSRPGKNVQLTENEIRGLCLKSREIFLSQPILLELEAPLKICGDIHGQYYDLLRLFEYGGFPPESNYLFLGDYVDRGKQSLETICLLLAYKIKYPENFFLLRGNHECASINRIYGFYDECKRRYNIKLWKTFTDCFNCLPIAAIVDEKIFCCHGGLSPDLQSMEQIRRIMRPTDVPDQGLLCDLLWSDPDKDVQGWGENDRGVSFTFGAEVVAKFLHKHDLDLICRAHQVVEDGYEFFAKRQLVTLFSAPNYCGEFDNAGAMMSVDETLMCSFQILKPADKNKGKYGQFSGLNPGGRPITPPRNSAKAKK
Assay [6] concerns the target T1, DNA repair protein RAD52 homolog (Homo sapiens, UniProt P43351).
T1 sequence (P43351 whole entry): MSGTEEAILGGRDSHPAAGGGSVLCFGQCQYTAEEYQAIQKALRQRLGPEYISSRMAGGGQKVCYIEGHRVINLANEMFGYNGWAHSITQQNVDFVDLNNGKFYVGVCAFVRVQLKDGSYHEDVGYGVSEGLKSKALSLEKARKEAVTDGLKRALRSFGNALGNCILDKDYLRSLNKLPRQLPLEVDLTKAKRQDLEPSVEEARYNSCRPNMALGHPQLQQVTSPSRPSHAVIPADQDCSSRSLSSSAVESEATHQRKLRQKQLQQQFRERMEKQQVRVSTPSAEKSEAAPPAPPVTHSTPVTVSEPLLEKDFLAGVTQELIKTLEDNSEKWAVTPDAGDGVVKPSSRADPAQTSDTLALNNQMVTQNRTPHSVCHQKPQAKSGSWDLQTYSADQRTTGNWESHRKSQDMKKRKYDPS
The class given is functional, biochemical.

Assay [7] deals with RNA-editing ligase 1, mitochondrial (Trypanosoma brucei brucei, UniProt P86926). Description: inhibition of trypanosome RNA editing ligase – biochemical, fluorescence, Trypanosoma brucei, dose response (AID 1117295). Type of assay: functional.
Sequence of RNA-editing ligase 1, mitochondrial (P86926 whole entry): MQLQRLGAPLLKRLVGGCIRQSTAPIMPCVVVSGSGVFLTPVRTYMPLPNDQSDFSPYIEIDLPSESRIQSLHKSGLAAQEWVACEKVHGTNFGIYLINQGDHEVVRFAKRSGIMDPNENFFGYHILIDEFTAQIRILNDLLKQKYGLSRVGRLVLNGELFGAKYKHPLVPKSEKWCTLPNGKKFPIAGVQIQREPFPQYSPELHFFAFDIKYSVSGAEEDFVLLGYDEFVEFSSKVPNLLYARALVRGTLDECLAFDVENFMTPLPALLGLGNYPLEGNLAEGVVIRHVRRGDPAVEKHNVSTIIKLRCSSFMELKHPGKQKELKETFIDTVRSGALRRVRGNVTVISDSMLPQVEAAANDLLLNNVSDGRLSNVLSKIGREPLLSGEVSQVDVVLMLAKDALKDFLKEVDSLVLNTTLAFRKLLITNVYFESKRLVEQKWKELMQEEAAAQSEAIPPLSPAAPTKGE
Assay [8] can be described thus: Luminescence Cell-Based Dose Response HTS to Identify Inhibitors of 5'UTR Stem-Loop Driven Prion Protein mRNA Translation in H4 Neuroglioblastoma Cells. [Related pubchem assays: 1827 (Project Summary), 1813 (Primary HTS)]. The class given is functional.
Assay [9] in a line: alpha-synuclein stem-loop luciferase translation blockers – H4 neuroglioma cells, luminescence, confirmation (AID 1988). The class given is functional, cell-based.
A short description of assay [10]: HIV-1 Vif–A3G interaction blockers – biochemical, TR-FRET, GST-Vif 1-94, biotin-A3G peptide, dose response retest, primary screen (AID 1117319).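 Further: TR-FRET signal of purified GST-Vif binding a biotinylated A3G peptide; inhibitors lower the FRET signal by blocking Vif and A3G binding.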 Type of assay: functional.
A short description of assay [11]: luciferase reporter signal suppression in cells – H4 neuroglioma cells, luminescence, dose response (AID 1990). The class given is functional, cell-based.
The target in assay [12] is NAD-dependent protein deacylase sirtuin-5, mitochondrial (Homo sapiens, UniProt Q9NXA8). The assay can be described thus: sirtuin-5 deacylation blockers, concentration series – biochemical, fluorescence imaging, cherry-pick, set 5, dose response (AID 720591).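 Further: desuccinylation of succinyl peptide AMC substrate read as fluorescence after trypsin release; potency of inhibitors that lower fluorescence and may act on trypsin instead.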
Sequence of NAD-dependent protein deacylase sirtuin-5, mitochondrial (Q9NXA8 whole entry): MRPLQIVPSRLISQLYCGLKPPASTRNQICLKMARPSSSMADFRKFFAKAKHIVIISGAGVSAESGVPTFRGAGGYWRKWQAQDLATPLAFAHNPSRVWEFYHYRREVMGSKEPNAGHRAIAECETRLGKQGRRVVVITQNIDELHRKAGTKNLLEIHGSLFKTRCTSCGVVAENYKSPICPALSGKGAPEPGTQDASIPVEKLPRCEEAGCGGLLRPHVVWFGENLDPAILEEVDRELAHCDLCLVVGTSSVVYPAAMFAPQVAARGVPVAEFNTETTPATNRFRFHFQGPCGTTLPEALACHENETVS
Assay [13] addresses Oxysterols receptor LXR-beta (Homo sapiens, UniProt P55055). The class given is functional, cell-based.
The target of another assay is T2, Protein skinhead-1 (Caenorhabditis elegans, UniProt P34707).
T2 sequence (P34707 whole entry): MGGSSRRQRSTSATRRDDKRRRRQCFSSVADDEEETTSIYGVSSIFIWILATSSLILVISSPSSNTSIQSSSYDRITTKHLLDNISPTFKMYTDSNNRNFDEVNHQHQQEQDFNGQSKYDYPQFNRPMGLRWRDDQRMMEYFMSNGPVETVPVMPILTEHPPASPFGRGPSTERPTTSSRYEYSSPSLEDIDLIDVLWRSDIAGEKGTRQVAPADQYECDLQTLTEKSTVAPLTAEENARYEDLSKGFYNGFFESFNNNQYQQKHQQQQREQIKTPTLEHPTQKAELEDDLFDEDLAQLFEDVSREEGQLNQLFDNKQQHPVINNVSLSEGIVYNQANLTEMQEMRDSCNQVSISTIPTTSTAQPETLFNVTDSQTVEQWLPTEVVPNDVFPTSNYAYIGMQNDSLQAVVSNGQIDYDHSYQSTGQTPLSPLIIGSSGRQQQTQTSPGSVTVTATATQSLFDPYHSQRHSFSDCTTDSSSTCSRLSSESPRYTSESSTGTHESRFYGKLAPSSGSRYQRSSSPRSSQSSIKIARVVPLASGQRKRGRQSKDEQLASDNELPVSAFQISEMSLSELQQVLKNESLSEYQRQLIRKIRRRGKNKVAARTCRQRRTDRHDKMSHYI
Type of assay: functional.

Assay [14] in a line: viability loss in THP-1 monocytes – THP-1 cells, cytotoxicity control for Vif-APOBEC3G degradation inhibitor project, dose response (AID 1117359). The class given is functional. The settings on record: THP-1.
Assay [15] addresses Sphingosine 1-phosphate receptor 2 (Homo sapiens, UniProt O95136). The assay can be described thus: Dose Response Cell Based Assay for Antagonists of the S1P2 Receptor. [Related pubchem assays: 856, 736 ]. The class given is functional.
Another assay deals with INS1. The assay can be described thus: INS-1E survival protection against cytokine death – cell-based, luminescence, retest, dose response (AID 449756).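 Further: cell death triggered by IL-1 beta plus TNF-alpha plus IFN-gamma mixture; protective hits raise ATP signal compared with cytokine alone wells.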 Type of assay: functional. As to conditions: Rattus norvegicus.

Sequence of Sphingosine 1-phosphate receptor 2 (O95136 whole entry): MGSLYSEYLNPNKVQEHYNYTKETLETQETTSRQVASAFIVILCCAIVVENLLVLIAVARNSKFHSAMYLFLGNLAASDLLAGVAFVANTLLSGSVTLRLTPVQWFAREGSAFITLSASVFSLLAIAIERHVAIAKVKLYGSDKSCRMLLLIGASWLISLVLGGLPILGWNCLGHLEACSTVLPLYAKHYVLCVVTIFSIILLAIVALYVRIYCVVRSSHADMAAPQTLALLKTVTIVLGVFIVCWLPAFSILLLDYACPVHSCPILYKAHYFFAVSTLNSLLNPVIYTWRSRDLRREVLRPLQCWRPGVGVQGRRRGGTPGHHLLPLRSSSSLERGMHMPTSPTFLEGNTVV
Sequence of Cytochrome P450 2C9 (P11712 whole entry): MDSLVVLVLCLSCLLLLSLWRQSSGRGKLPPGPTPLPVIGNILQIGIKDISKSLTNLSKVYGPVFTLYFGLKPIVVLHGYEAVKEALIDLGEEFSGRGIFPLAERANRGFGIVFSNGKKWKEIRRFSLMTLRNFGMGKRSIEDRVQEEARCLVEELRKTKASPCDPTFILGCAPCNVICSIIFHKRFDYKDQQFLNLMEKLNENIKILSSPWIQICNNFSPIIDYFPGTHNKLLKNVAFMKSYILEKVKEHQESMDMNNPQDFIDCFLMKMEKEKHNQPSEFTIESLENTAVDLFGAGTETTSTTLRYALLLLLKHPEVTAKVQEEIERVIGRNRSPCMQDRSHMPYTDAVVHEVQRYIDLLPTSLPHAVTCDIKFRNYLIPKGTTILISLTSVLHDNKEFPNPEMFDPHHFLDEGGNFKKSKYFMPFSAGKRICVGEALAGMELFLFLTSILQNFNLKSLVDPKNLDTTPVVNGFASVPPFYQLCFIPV
Sequence of Oxysterols receptor LXR-beta (P55055 whole entry): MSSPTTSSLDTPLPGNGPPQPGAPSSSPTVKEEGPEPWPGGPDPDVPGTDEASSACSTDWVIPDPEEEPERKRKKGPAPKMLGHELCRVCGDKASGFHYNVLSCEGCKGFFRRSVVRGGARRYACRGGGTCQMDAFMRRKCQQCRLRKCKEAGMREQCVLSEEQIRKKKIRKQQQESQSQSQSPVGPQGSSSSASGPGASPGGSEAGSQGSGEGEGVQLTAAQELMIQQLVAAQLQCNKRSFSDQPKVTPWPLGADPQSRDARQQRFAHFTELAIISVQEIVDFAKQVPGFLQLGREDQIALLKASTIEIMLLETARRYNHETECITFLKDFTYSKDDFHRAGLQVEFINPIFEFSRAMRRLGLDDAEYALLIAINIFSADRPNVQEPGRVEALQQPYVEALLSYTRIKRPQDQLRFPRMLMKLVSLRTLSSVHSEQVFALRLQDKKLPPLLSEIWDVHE

For `O=C(CSc1nc2cc(Cl)ccc2s1)N1CCN(C(=O)c2ccco2)CC1`, in assay [1], the CC50 was > 40 µM (active).

For `c1ccc(-c2nccc(-c3ccc(-n4cnc5ccccc54)cc3)n2)nc1`, the IC50 in assay [2] was 57.6 µM (not active); in assay [4], 4.65 µM (active); in [5] it was 4 µM (active). Moreover, on Cytochrome P450 2C9, the AC50 is 22.4 µM (inconclusive). Besides, the CC50 in [3] was > 40 µM (active).

`COc1ccccc1N(Cc1ccccc1)S(=O)(=O)c1cccc(C(=O)NC2CC(C)(C)NC(C)(C)C2)c1`: the AC50 in assay [6] is 13.4 µM (active). Moreover, in [7], the IC50 was > 96.6 µM (inactive).

For the molecule `Cc1ccc(NCc2nnc(SCc3ccc(C#N)cc3)n2Cc2ccco2)c(C)c1`, the 50% effective concentration (EC50) in assay [8], in assay [9] and in assay [11] was > 120 µM (not active) each time. Further, the 50% inhibitory concentration (IC50) in [10] is > 100 µM (active).

Take `COc1ccc(CN(C(=O)c2ccco2)c2ccc(C)c(C)c2)cc1`: the AC50 in assay [12] was 24.7 µM (active).

In the case of `Clc1ccc(C=Cc2ccccn2)c(Cl)c1`, the EC50 (in assay [13]; in the assay “cells”) was > 67.6 µM (inactive) each time. On Protein skinhead-1, the half-maximal inhibitory concentration (IC50) was 4.24 µM (active).

On to `Cc1cc(N(CCCl)CCCl)ccc1C=NNC(=O)c1cccnc1`, for which the CC50 in [14] is 20 µM (active).

Turning to `Cc1ccc(-c2nn(-c3ccccc3)cc2/C=N/NC(=O)c2ccc(Br)o2)cc1`, the IC50 in assay [15] is 3.36 µM (active). Besides, in the assay with INS1, the concentration at half-maximal activity (AC50) is 0.716 µM (active).
